# ChEMBL document CHEMBL4177608, “Design and synthesis of benzimidazole-based Rho kinase inhibitors for the treatment of glaucoma” (Bioorg Med Chem, 2017)
# How the values were obtained:
# [1] = Antioxidant activity assessed as DPPH free radical scavenging activity at 200 ug/ml after 30 mins by spectrophotometric analysis; assay type: functional
# Rattus norvegicus [2] = organism: Rattus norvegicus; assay: Reduction in intraocular pressure in Wistar rat model of dexamethasone-induced elevated IOP assessed as change in intraocular pressure in contralateral eye at 1 % w/v after 2.5 hrs by tonometry (reference value: 0%); assay type: ADME, organism-based; design: scale not given: the % may be the effect or the level left; details: in vivo
# [3] = 1-Octanol/water partition coefficient, log P of compound at 2 mg after 24 hrs by spectrophotometry based shake flask method; assay type: physicochemical
# Rattus norvegicus [4] = organism: Rattus norvegicus; assay: Reduction in intraocular pressure in Wistar rat model of dexamethasone-induced elevated IOP assessed as change in intraocular pressure at 1 % w/v after 1 hr by tonometry (reference value: 0%); assay type: functional; design: scale not given: the % may be the effect or the level left
# Rattus norvegicus [5] = organism: Rattus norvegicus; assay: Reduction in intraocular pressure in Wistar rat model of dexamethasone-induced elevated IOP assessed as change in intraocular pressure at 1 % w/v after 0.5 hrs by tonometry (reference value: 0%); assay type: functional; design: scale not given: the % may be the effect or the level left
# Rattus norvegicus [6] = organism: Rattus norvegicus; assay: Reduction in intraocular pressure in Wistar rat model of dexamethasone-induced elevated IOP assessed as change in intraocular pressure in contralateral eye at 1 % w/v after 4 hrs by tonometry (reference value: 0%); assay type: ADME, organism-based; design: scale not given: the % may be the effect or the level left; details: in vivo
# Rattus norvegicus [7] = organism: Rattus norvegicus; assay: Reduction in intraocular pressure in Wistar rat model of dexamethasone-induced elevated IOP assessed as change in intraocular pressure in contralateral eye at 1 % w/v after 5 hrs by tonometry (reference value: 0%); assay type: ADME, organism-based; design: scale not given: the % may be the effect or the level left; details: in vivo
# Rattus norvegicus [8] = organism: Rattus norvegicus; assay: Reduction in intraocular pressure in Wistar rat model of dexamethasone-induced elevated IOP assessed as change in intraocular pressure at 1 % w/v after 6 hrs by tonometry (reference value: 0%); assay type: functional; design: scale not given: the % may be the effect or the level left
# Rattus norvegicus [9] = organism: Rattus norvegicus; assay: Reduction in intraocular pressure in Wistar rat model of dexamethasone-induced elevated IOP assessed as change in intraocular pressure at 1 % w/v after 3 hrs by tonometry (reference value: 0%); assay type: functional; design: scale not given: the % may be the effect or the level left
# [10] = Antioxidant activity assessed as DPPH free radical scavenging activity after 30 mins by spectrophotometric analysis; assay type: functional
# Rattus norvegicus [11] = organism: Rattus norvegicus; assay: Reduction in intraocular pressure in Wistar rat model of dexamethasone-induced elevated IOP assessed as change in intraocular pressure at 1 % w/v after 4 hrs by tonometry (reference value: 0%); assay type: functional; design: scale not given: the % may be the effect or the level left
# Rattus norvegicus [12] = organism: Rattus norvegicus; assay: Reduction in intraocular pressure in Wistar rat model of dexamethasone-induced elevated IOP assessed as change in intraocular pressure in contralateral eye at 1 % w/v after 1 hr by tonometry (reference value: 0%); assay type: ADME, organism-based; design: scale not given: the % may be the effect or the level left; details: in vivo, topical_or_ocular
# Rattus norvegicus [13] = organism: Rattus norvegicus; assay: Reduction in intraocular pressure in Wistar rat model of dexamethasone-induced elevated IOP assessed as reduction in intraocular pressure at peak effect time at 1 % w/v by tonometry; assay type: functional; design: scale not given: the % may be the effect or the level left
# Rattus norvegicus [14] = organism: Rattus norvegicus; assay: Reduction in intraocular pressure in Wistar rat model of dexamethasone-induced elevated IOP assessed as change in intraocular pressure at 1 % w/v after 2 hrs by tonometry (reference value: 0%); assay type: functional; design: scale not given: the % may be the effect or the level left
# Rattus norvegicus [15] = organism: Rattus norvegicus; assay: Reduction in intraocular pressure in Wistar rat model of dexamethasone-induced elevated IOP assessed as change in intraocular pressure at 1 % w/v after 2.5 hrs by tonometry (reference value: 0%); assay type: functional; design: scale not given: the % may be the effect or the level left
# Rattus norvegicus [16] = organism: Rattus norvegicus; assay: Reduction in intraocular pressure in Wistar rat model of dexamethasone-induced elevated IOP assessed as change in intraocular pressure in contralateral eye at 1 % w/v after 3 hrs by tonometry (reference value: 0%); assay type: ADME, organism-based; design: scale not given: the % may be the effect or the level left; details: in vivo
# Rattus norvegicus [17] = organism: Rattus norvegicus; assay: Reduction in intraocular pressure in Wistar rat model of dexamethasone-induced elevated IOP assessed as change in intraocular pressure in contralateral eye at 1 % w/v after 1.5 hrs by tonometry (reference value: 0%); assay type: ADME, organism-based; design: scale not given: the % may be the effect or the level left; details: in vivo
# [18] = Antioxidant activity assessed as DPPH free radical scavenging activity at 100 ug/ml after 30 mins by spectrophotometric analysis; assay type: functional
# Rattus norvegicus [19] = organism: Rattus norvegicus; assay: Reduction in intraocular pressure in Wistar rat model of dexamethasone-induced elevated IOP assessed as change in intraocular pressure in contralateral eye at 1 % w/v after 6 hrs by tonometry (reference value: 0%); assay type: ADME, organism-based; design: scale not given: the % may be the effect or the level left; details: in vivo
# Rattus norvegicus [20] = organism: Rattus norvegicus; assay: Reduction in intraocular pressure in Wistar rat model of dexamethasone-induced elevated IOP assessed as change in intraocular pressure in contralateral eye at 1 % w/v after 0.5 hrs by tonometry (reference value: 0%); assay type: ADME, organism-based; design: scale not given: the % may be the effect or the level left; details: in vivo, topical_or_ocular
# [21] = Antioxidant activity assessed as DPPH free radical scavenging activity at 150 ug/ml after 30 mins by spectrophotometric analysis; assay type: functional
# Rattus norvegicus [22] = organism: Rattus norvegicus; assay: Reduction in intraocular pressure in Wistar rat model of dexamethasone-induced elevated IOP assessed as peak effect time for reduction in intraocular pressure at 1 % w/v by tonometry; assay type: functional, organism-based
# [23] = Antioxidant activity assessed as DPPH free radical scavenging activity at 25 ug/ml after 30 mins by spectrophotometric analysis; assay type: functional
# Rattus norvegicus [24] = organism: Rattus norvegicus; assay: Reduction in intraocular pressure in Wistar rat model of dexamethasone-induced elevated IOP assessed as change in intraocular pressure at 1 % w/v after 1.5 hrs by tonometry (reference value: 0%); assay type: functional; design: scale not given: the % may be the effect or the level left
# [25] = Antioxidant activity assessed as DPPH free radical scavenging activity at 50 ug/ml after 30 mins by spectrophotometric analysis; assay type: functional
# Rattus norvegicus [26] = organism: Rattus norvegicus; assay: Reduction in intraocular pressure in Wistar rat model of dexamethasone-induced elevated IOP assessed as onset time for reduction in intraocular pressure at 1 % w/v by tonometry; assay type: functional
# Rattus norvegicus [27] = organism: Rattus norvegicus; assay: Reduction in intraocular pressure in Wistar rat model of dexamethasone-induced elevated IOP assessed as change in intraocular pressure at 1 % w/v after 5 hrs by tonometry (reference value: 0%); assay type: functional; design: scale not given: the % may be the effect or the level left
# Rattus norvegicus [28] = organism: Rattus norvegicus; assay: Reduction in intraocular pressure in Wistar rat model of dexamethasone-induced elevated IOP assessed as change in intraocular pressure in contralateral eye at 1 % w/v after 2 hrs by tonometry (reference value: 0%); assay type: ADME, organism-based; design: scale not given: the % may be the effect or the level left; details: in vivo
# [29] = Antioxidant activity assessed as DPPH free radical scavenging activity at 5 ug/ml after 30 mins by spectrophotometric analysis; assay type: functional
Activity (Rattus norvegicus [2]),logP at 24 h [3],Activity (Rattus norvegicus [6]),Activity (Rattus norvegicus [7]),IC50 [10],Activity (Rattus norvegicus [12]),Activity (Rattus norvegicus [16]),Activity (Rattus norvegicus [17]),Activity (Rattus norvegicus [19]),Activity (Rattus norvegicus [20]),SMILES,Activity [1],Activity (Rattus norvegicus [4]),Activity (Rattus norvegicus [5]),Activity (Rattus norvegicus [8]),Activity (Rattus norvegicus [9]),Activity (Rattus norvegicus [11]),Activity (Rattus norvegicus [13]),Activity (Rattus norvegicus [14]),Activity (Rattus norvegicus [15]),Activity [18],further results
4.8%,1.09,0%,0%,124.91 µg/mL,2.37%,2.62%,3.73%,0%,1.4%,CCN1CCN(CC(=O)Nc2nc3ccccc3[nH]2)CC1,65.8%,6.23%,4.12%,0.45%,8.93%,5.65%,45.02%,10.6%,12.25%,45.7%,Activity [21]: 57.5%; Tmax (Rattus norvegicus [22]): 2.5 h; Activity [23]: 26.6%; Activity (Rattus norvegicus [24]): 9.55%; Activity [25]: 35.7%; Time (Rattus norvegicus [26]): 0.5 h; Activity (Rattus norvegicus [27]): 0.53%; Activity (Rattus norvegicus [28]): 5.22%; Activity [29]: 13.3%
4%,1.89,1.53%,0%,88.68 µg/mL,1.13%,3%,3.43%,0%,0.77%,O=C(CN1CCN(C(c2ccccc2)c2ccccc2)CC1)Nc1nc2ccccc2[nH]1,81.4%,5.83%,4.37%,1.7%,8.17%,7.33%,51.91%,16.47%,12.4%,53.7%,Activity [21]: 66.6%; Tmax (Rattus norvegicus [22]): 2.5 h; Activity [23]: 32.9%; Activity (Rattus norvegicus [24]): 10.38%; Activity [25]: 41.5%; Time (Rattus norvegicus [26]): 0.5 h; Activity (Rattus norvegicus [27]): 3.67%; Activity (Rattus norvegicus [28]): 5.08%; Activity [29]: 22.1%
2.72%,1.97,1.26%,0.83%,134.71 µg/mL,2.47%,2.32%,3.13%,0.47%,1.67%,O=C(CN1CCN(Cc2ccccc2)CC1)Nc1nc2ccccc2[nH]1,63.9%,5.58%,3.4%,0.9%,10.5%,5.66%,35.52%,8.65%,11.45%,47%,Activity [21]: 52.6%; Tmax (Rattus norvegicus [22]): 2.5 h; Activity [23]: 22.1%; Activity (Rattus norvegicus [24]): 6.85%; Activity [25]: 33.3%; Time (Rattus norvegicus [26]): 0.5 h; Activity (Rattus norvegicus [27]): 2.9%; Activity (Rattus norvegicus [28]): 3.2%; Activity [29]: 6.28%
